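In this assay, cells in 96-well plates receive the compound at five concentrations for 48 hours. Endpoints are linearly interpolated between the surrounding concentrations. TGI: total growth inhibition.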
Legend:
Test in all cases: NCI tumour cell line growth inhibition, 48 h
[1] = tested on: T-47D breast
[2] = tested on: HOP-62 NSCLC
[3] = tested on: RPMI-8226 leukemia
[4] = tested on: HT29 colon
[5] = tested on: SNB-19 CNS
[6] = tested on: NCI-H226 lung
[7] = tested on: COLO 205 colon
[8] = tested on: SF-295 CNS
[9] = tested on: OVCAR-3 ovarian
[10] = tested on: SK-OV-3 ovarian
[11] = tested on: MDA-MB-435
[12] = tested on: SF-268 CNS
[13] = tested on: SF-539 CNS
[14] = tested on: IGROV1 ovarian
[15] = tested on: NCI/ADR-RES ovarian
[16] = tested on: SR leukemia
[17] = tested on: ACHN renal
[18] = tested on: EKVX NSCLC
[19] = tested on: UO-31 renal
[20] = tested on: LOX IMVI melanoma
[21] = tested on: NCI-H23 lung
[22] = tested on: A549 NSCLC
[23] = tested on: OVCAR-5 ovarian
[24] = tested on: MALME-3M melanoma
[25] = tested on: SK-MEL-2 melanoma
[26] = tested on: KM12 colon
[27] = tested on: NCI-H460 lung
[28] = tested on: CCRF-CEM leukemia
[29] = tested on: HCT-15 colon
[30] = tested on: HS 578T breast
[31] = tested on: U251 CNS
[32] = tested on: UACC-257 melanoma
[33] = tested on: HL-60(TB) leukemia
[34] = tested on: SK-MEL-28 melanoma
[35] = tested on: RXF 393 renal
[36] = tested on: SN12C renal
[37] = tested on: DU-145 prostate
[38] = tested on: MOLT-4 leukemia
[39] = tested on: OVCAR-8 ovarian
[40] = tested on: CAKI-1 renal
[41] = tested on: NCI-H522 lung
[42] = tested on: OVCAR-4 ovarian
[43] = tested on: MCF7 breast
[44] = tested on: M14 melanoma
[45] = tested on: UACC-62 melanoma
[46] = tested on: PC-3 prostate
[47] = tested on: 786-0 renal
[48] = tested on: MDA-MB-231 breast
[49] = tested on: HCT-116 colon
[50] = tested on: HOP-92 NSCLC
[51] = tested on: TK-10 renal
[52] = tested on: SNB-75 CNS
[53] = tested on: SK-MEL-5 melanoma
[54] = tested on: SW-620 colon
[55] = tested on: K-562 leukemia

FC(F)(F)c1ccc(N=C/C=C(/Nc2ccc(C(F)(F)F)cc2)c2ccc(Cl)cc2)cc1
TGI [1]: 39.9 µM | TGI [2]: 40.1 µM | TGI [3]: 84.8 µM | TGI [4]: 24.8 µM | TGI [5]: 25 µM | TGI [6]: 32.3 µM | TGI [7]: 32.6 µM | TGI [8]: 36.1 µM | TGI [9]: 27.9 µM | TGI [10]: 39.1 µM | TGI [11]: 23 µM | TGI [12]: 33.2 µM | TGI [13]: 31.3 µM | TGI [14]: 25.5 µM | TGI [15]: 32.3 µM | TGI [16]: > 100 µM | TGI [17]: 26.2 µM | TGI [18]: 44.4 µM | TGI [19]: > 100 µM | TGI [20]: 19.3 µM | TGI [21]: 31.3 µM | TGI [22]: 35.5 µM | TGI [23]: 38.3 µM | TGI [24]: 40.4 µM | TGI [25]: 49.6 µM | TGI [26]: 28.6 µM | TGI [27]: > 100 µM | TGI [28]: > 100 µM | TGI [29]: 25 µM | TGI [30]: 38.2 µM | TGI [31]: 28.2 µM | TGI [32]: 38.3 µM | TGI [33]: 65.5 µM | TGI [34]: 33.4 µM | TGI [35]: 26.4 µM | TGI [36]: 26.3 µM | TGI [37]: 31.8 µM | TGI [38]: > 100 µM | TGI [39]: 39 µM | TGI [40]: 19.6 µM | TGI [41]: 31.3 µM | TGI [42]: 49.8 µM | TGI [43]: 48 µM | TGI [44]: 30.5 µM | TGI [45]: 15.6 µM | TGI [46]: 75.8 µM | TGI [47]: 37.9 µM | TGI [48]: 37.7 µM | TGI [49]: 24.5 µM | TGI [50]: 51.4 µM | TGI [51]: 69.1 µM | TGI [52]: 36.8 µM | TGI [53]: 22.2 µM | TGI [54]: 32.8 µM | TGI [55]: > 100 µM

Reference: PubChem BioAssay (NCI)
